Experimental data from patent US6777578B2, “Hydroxyphenstatin and the prodrugs thereof” (Arizona Board of Regents, priority 2000, dated 2004).
≈ marks a conversion by molar mass, not a printed value. Read-outs that look alike come from different tables or passages of the source.

Tests used:
tubulin [1] = assay: Colchicine binding assay; conditions: [3H]colchicine binding to tubulin
Protocol: (§1) The tubulin polymerization and colchicine binding assays were performed as described previously (See: […]), except that Beckman DU7400/7500 spectrophotometers equipped with “high performance” temperature controllers were used in the former assay. Unlike the manual control possible with the previously used Gilford spectrophotometers, the polymerization assays required use of programs provided by MDB analytical Associates, South Plainfield, N.J., since the Beckman instruments are microprocessor controlled. The Beckman instruments were unable to maintain 0° C., and the lower temperature in the assays fluctuated between 2 and 4° C. Temperature changes were, however, more rapid than in the Gilford instruments with the jump from the lower temperature to 30° C. taking about 20 sec. and the reverse jump about 100 sec.

tubulin [2] = assay: Tubulin polymerization assay; type: biochemical; conditions: read-out: Inhibition of Tubulin Polymerization (μM IC50 ± SD)
Protocol: as §1

BXPC-3 = assay: Human cancer cell growth inhibition, pancreas BXPC-3; type: cell-based; conditions: Pancreas-a
Protocol: (§2) The following measures are used to express drug activity giving the drug dose, which reduces cell growth to a specified percentage of growth:
(§3) ED50 (P388) and GI50 (HTCL) are the drug doses needed to reduce the percent growth to 50%. There is no mathematical difference between ED50 and GI50, which are both calculated using the same formula. The only difference is historical usage.
(§4) Each drug is tested at five (5) doses: 100-10-1-0.1-0.01 μg/ml. Percent Growths are calculated for each dose. The two (or three) doses with growth values above, below, (or near to) 50% growth are used to calculate the ED50/GI50 using a linear regression formula. The log of the dose is used during the regression computation. If no dose yields a growth value under 50%, the results are expressed as: ED50>(highest dose). If no dose yields a growth value higher than 50%, then ED50<(lowest dose). Similar calculations are performed for the TGI at 0% growth, and at −50% growth for the LC50.

NCI-H460 = assay: Human cancer cell growth inhibition, lung-NSC NCI-H460; type: cell-based
Protocol: as §2, §3, §4

SF-295 = assay: Human cancer cell growth inhibition, CNS SF-295; type: cell-based
Protocol: as §2, §3, §4

[3] = test system: two fungal and eight bacterial strains; assay: Antibiotic screening against the whole panel; type: cell-based; conditions: for inhibition of growth of the two fungal and eight bacterial strains tested: at 100 μg/disk
Description: (§5) The new substances were screened against the bacteria Stenotrophomonas maltophilia, Micrococcus luteus, Staphylococcus aureus, Escherichia coli, Enterobacter cloacae, Enterococcus faecalis, Streptococcus pneumoniae, Neisseria gonorrhoeae, and the fungi Candida albicans and Cryptococcus neoformans, according to established disk susceptibility testing protocols.

KM20L2 = assay: Human cancer cell growth inhibition, colon KM20L2; type: cell-based
Protocol: as §2, §3, §4

P388 = assay: Cancer cell growth inhibition, murine P388 lymphocytic leukemia; type: cell-based
Protocol: as §2, §3, §4

DU-145 = assay: Human cancer cell growth inhibition, prostate DU-145; type: cell-based
Protocol: as §2, §3, §4

RPMI-7951 = assay: Human cancer cell growth inhibition, melanoma RPMI-7951; type: cell-based
Protocol: as §2, §3, §4

NCI 60-cell screen = assay: NCI 60-cell screen; type: cell-based; conditions: read-out: mean-panel GI50
Micrococcus luteus = assay: Disk susceptibility testing, Micrococcus luteus; type: cell-based
Description: as §5

[4] = Solubility in distilled water; type: physicochemical; conditions: distilled water at 25° C.
Staphylococcus aureus = assay: Disk susceptibility testing, Staphylococcus aureus; type: cell-based
Description: as §5

Neisseria gonorrhoeae = assay: Disk susceptibility testing, Neisseria gonorrhoeae; type: cell-based
Description: as §5

[5] = test system: Stenotrophomonas maltophilia; assay: Disk susceptibility testing, Stenotrophomonas maltophilia; type: cell-based
Description: as §5

Escherichia coli = assay: Disk susceptibility testing, Escherichia coli; type: cell-based
Description: as §5

Cryptococcus neoformans = assay: Disk susceptibility testing, Cryptococcus neoformans; type: cell-based
Description: as §5

Candida albicans = assay: Disk susceptibility testing, Candida albicans; type: cell-based
Description: as §5

**Q.** Which “% Inhibition of Colchicine Binding ± SD” value (tubulin [1]) does the source give for `COc1ccc(/C=C\c2cc(OC)c(OC)c(OC)c2)c(O)c1O` [Compound 3a, combretastatin A-1, reference compound] here?
**A.** 99.6 ± 0.7%

**Q.** And the IC50 (tubulin [2])?
**A.** 1.1 ± 0.07 µM

**Q.** Which IC50 (tubulin [2]) does the source give for `COc1ccc(/C=C\c2cc(OC)c(OC)c(OC)c2)cc1OP(=O)(O)O` [Compound 3c] here?
**A.** > 40 µM

**Q.** With `COc1ccc(C(=O)c2cc(OC)c(OC)c(OC)c2)c(O)c1O` [Compound 6a] as the compound, how does the GI50 (BXPC-3; Homo sapiens, read-out: GI50) read?
**A.** 3.3 µg/mL (≈ 9.87 µM)

**Q.** And the GI50 (NCI-H460; Homo sapiens, read-out: GI50)?
**A.** 0.21 µg/mL (≈ 0.628 µM)

**Q.** And the GI50 (SF-295; Homo sapiens, read-out: GI50)?
**A.** 0.04 µg/mL (≈ 0.12 µM)

**Q.** What about the “inhibition of growth of the two fungal and eight bacterial strains tested” value [3] of the same compound?
**A.** none of these compounds inhibited growth

**Q.** What about the GI50 (KM20L2; Homo sapiens, KM-20L2, read-out: GI50) of the same compound?
**A.** 1.2 µg/mL (≈ 3.59 µM)

**Q.** And the “% Inhibition of Colchicine Binding ± SD” value (tubulin [1])?
**A.** 77 ± 4%

**Q.** And the GI50 (P388; Mus musculus, read-out: GI50)?
**A.** 0.315 µg/mL (≈ 0.942 µM)

**Q.** What about the GI50 (DU-145; Homo sapiens, read-out: GI50) of the same compound?
**A.** 0.048 µg/mL (≈ 0.144 µM)

**Q.** What about the GI50 (RPMI-7951; Homo sapiens, read-out: GI50) of the same compound?
**A.** 0.58 µg/mL (≈ 1.73 µM)

**Q.** What about the GI50 (NCI 60-cell screen; 60 cell) of the same compound?
**A.** 167 nM

**Q.** And the melting point?
**A.** 171.1 to 171.9 °C

**Q.** What about the IC50 (tubulin [2]) of the same compound?
**A.** 0.82 ± 0.2 µM

**Q.** What does the source list for `COCOc1c(OC)ccc(C(=O)c2cc(OC)c(OC)c(OC)c2)c1OCOC` [Compound 6c, 2′,3′-Bis(methoxymethyloxy)-3,4,4′,5-tetramethoxybenzophenone]?
**A.** GI50 (BXPC-3; Homo sapiens, read-out: GI50): > 10 µg/mL; GI50 (NCI-H460; Homo sapiens, read-out: GI50): > 10 µg/mL; GI50 (SF-295; Homo sapiens, read-out: GI50): > 10 µg/mL; inhibition of growth of the two fungal and eight bacterial strains tested [3]: none of these compounds inhibited growth; GI50 (P388; Mus musculus, read-out: GI50): > 10 µg/mL; GI50 (DU-145; Homo sapiens, read-out: GI50): > 10 µg/mL; GI50 (RPMI-7951; Homo sapiens, read-out: GI50): > 10 µg/mL; melting point: 70.2 to 71.7 °C

**Q.** With `COc1cc(C(=O)c2ccc(OC)c(OP(=O)(OCc3ccccc3)OCc3ccccc3)c2OP(=O)(OCc2ccccc2)OCc2ccccc2)cc(OC)c1OC` [Compound 6d, 2′,3′-O-Di-(bisbenzylphosphoryl)-hydroxyphenstatin] as the compound, how does the GI50 (BXPC-3) read?
**A.** >10 µg/mL

**Q.** What about the GI50 (NCI-H460) of the same compound?
**A.** >10 µg/mL

**Q.** And the GI50 (SF-295)?
**A.** >10 µg/mL

**Q.** What about the GI50 (P388) of the same compound?
**A.** 2.55 µg/mL (≈ 2.98 µM)

**Q.** What about the GI50 (DU-145) of the same compound?
**A.** >10 µg/mL

**Q.** What about the “Minimum inhibitory Concentration (μg/disk)” value (Micrococcus luteus) of the same compound?
**A.** 50-100 μg/disk

**Q.** And the GI50 (RPMI-7951)?
**A.** >10 µg/mL

**Q.** Which results are given for `COc1cc(C(=O)c2ccc(OC)c(OP(=O)([O-])[O-])c2OP(=O)([O-])[O-])cc(OC)c1OC.[Na+].[Na+].[Na+].[Na+]` [Compound 6e, Sodium Hydroxyphenstatin Diphosphate]?
**A.** GI50 (BXPC-3): 5.3 µg/mL; GI50 (NCI-H460): 0.35 µg/mL; GI50 (SF-295): 0.23 µg/mL; antifungal and/or antibacterial action [3]: did not; GI50 (KM20L2): 5.9 µg/mL; GI50 (P388): 0.0336 µg/mL; GI50 (DU-145): 0.3 µg/mL; solubility [4]: 100 mg/mL; GI50 (NCI 60-cell screen; NCI 60-cell screen, mean of panel): 167 nM; IC50 (tubulin [2]): > 40 µM

**Q.** Which solubility [4] does the source give for `COc1cc(C(=O)c2ccc(OC)c(OP(=O)([O-])[O-])c2OP(=O)([O-])[O-])cc(OC)c1OC.[Li+].[Li+].[Li+].[Li+]` [Compound 6f, Lithium Hydroxyphenstatin Diphosphate] here?
**A.** 25 mg/mL

**Q.** With `COc1cc(C(=O)c2ccc(OC)c(OP(=O)([O-])[O-])c2OP(=O)([O-])[O-])cc(OC)c1OC.[Ca+2].[Ca+2]` [Compound 6h, Calcium Hydroyphenstatin Diphosphate] as the compound, how does the solubility [4] read?
**A.** < 1 mg/mL

**Q.** For `COc1ccc(Br)c(O)c1O` [Compound 7a, 1-Bromo-2,3dihydroxy-4methoxy-benzene], which “Minimum inhibitory Concentration (μg/disk)” value (Staphylococcus aureus) is on record?
**A.** 25-50 μg/disk

**Q.** What about the “Minimum inhibitory Concentration (μg/disk)” value (Neisseria gonorrhoeae) of the same compound?
**A.** <6.25 μg/disk

**Q.** What about the “Minimum inhibitory Concentration (μg/disk)” value [5] of the same compound?
**A.** 25-50 μg/disk

**Q.** What about the “Minimum inhibitory Concentration (μg/disk)” value (Escherichia coli) of the same compound?
**A.** 50-100 μg/disk

**Q.** What about the melting point of the same compound?
**A.** 122.3 to 124.3 °C

**Q.** Which “inhibition of growth of the two fungal and eight bacterial strains tested” value [3] does the source give for `COc1ccc(Br)c(O[Si](C)(C)C(C)(C)C)c1O[Si](C)(C)C(C)(C)C` [Compound 7b, 1-Bromo-2,3-bis(tert-butyldimethylsilyl-oxy)-4-methoxy-benzene] here?
**A.** none of these compounds inhibited growth

**Q.** What about the melting point of the same compound?
**A.** 68.9 to 69.6 °C

**Q.** For `COc1cc(C(=O)N2CCOCC2)cc(OC)c1OC` [Compound 8a, N-(3,4,5Trimethoxybenzoyl)-morpholine], which “inhibition of growth of the two fungal and eight bacterial strains tested” value [3] is on record?
**A.** none of these compounds inhibited growth

**Q.** Which “Minimum inhibitory Concentration (μg/disk)” value (Cryptococcus neoformans) does the source give for `COc1cccc(C=O)c1OC(C)=O` [Compound 10, 2-Acetoxy-3methoxy-benzaldehyde] here?
**A.** 25-50 μg/disk

**Q.** What about the “Minimum inhibitory Concentration (μg/disk)” value [5] of the same compound?
**A.** 50-100 μg/disk

**Q.** And the melting point?
**A.** 75.4 to 76.2 °C

**Q.** For `COc1ccc(Br)c(C=O)c1OC(C)=O` [Compound 11, 2-Acetoxy-3methoxy-6bromo-benzaldehyde], which “Minimum inhibitory Concentration (μg/disk)” value (Neisseria gonorrhoeae) is on record?
**A.** 25-50 μg/disk

**Q.** And the “Minimum inhibitory Concentration (μg/disk)” value (Cryptococcus neoformans)?
**A.** 6.25-12.5 μg/disk

**Q.** And the “Minimum inhibitory Concentration (μg/disk)” value (Escherichia coli)?
**A.** 50-100 μg/disk

**Q.** And the “Minimum inhibitory Concentration (μg/disk)” value (Candida albicans)?
**A.** 12.5-25 μg/disk

**Q.** And the melting point?
**A.** 121.6 to 123.4 °C

**Q.** With `COc1ccc(Br)c(C=O)c1O` [Compound 12, 2-Hydroxy-3-methoxy-6bromo-benzaldehyde] as the compound, how does the “Minimum inhibitory Concentration (μg/disk)” value (Neisseria gonorrhoeae) read?
**A.** 12.5-25 μg/disk

**Q.** And the “Minimum inhibitory Concentration (μg/disk)” value (Cryptococcus neoformans)?
**A.** 12.5-25 μg/disk

**Q.** What about the “Minimum inhibitory Concentration (μg/disk)” value (Candida albicans) of the same compound?
**A.** 50-100 μg/disk

**Q.** With `COc1cc(C(=O)c2ccc(OC)c(OC)c2OC)cc(OC)c1OC` [Compound 13, 2′,3,3′,4,4′,5-Hexamethoxybenzophenone] as the compound, how does the “inhibition of growth of the two fungal and eight bacterial strains tested” value [3] read?
**A.** none of these compounds inhibited growth

**Q.** And the melting point?
**A.** 124.6 to 125.9 °C

**Q.** Which “inhibition of growth of the two fungal and eight bacterial strains tested” value [3] does the source give for `COc1cc(C(O)c2ccc(OC)c(OC)c2OC)cc(OC)c1OC` (stereo not shown) [Compound 14, 2′,3,3′,4,4′,5Hexamethoxydiphenylcarbinol] here?
**A.** none of these compounds inhibited growth

**Q.** Which results are given for `COCOc1c(OC)ccc(C(O)c2cc(OC)c(OC)c(OC)c2)c1OCOC` (stereo not shown) [Compound 15, 2′,3′-Bis(methoxymethyloxy)-3,4,4′,5tetramethoxydiphenylcarbinol]?
**A.** inhibition of growth of the two fungal and eight bacterial strains tested [3]: none of these compounds inhibited growth; melting point: 79.9 to 81.8 °C
